The results in this text go back to patent publication US9529005B2, “Modulating bacterial MAM polypeptides in pathogenic disease” (priority 2011, dated 2016).

What all share (test): Antimicrobial susceptibility testing (MIC), BD Phoenix Automated Microbiology System
What all share (format): cell-based

Assay [1] has as its system Klebsiella ssp. The following applies: for MIC: Klebsiella. From the text:
(§1) The inventors performed antimicrobial susceptibility testing (AST) by determining the minimal inhibiting concentration (MIC) of a panel of antimicrobials on all twenty bacterial isolates using the BD Phoenix Automated Microbiology System (Table 3). Antimicrobial panels included several drugs from each of the four most commonly used classes of antimicrobials, aminoglycosides, β-lactams, carbapenems and fluoroquinolones. The panels also included antimicrobials from other classes, such as trimethoprim/sulfamethoxazole, but resistance to these was not considered in the classification of isolates as multidrug-resistant.

The subject of assay [2] is Acinetobacter baumannii. The following applies: for MIC: Acinetobacter baumannii.
Description: as §1

The subject of assay [3] is Escherichia coli. The following applies: for MIC: Escherichia coli.
Description: as §1

Assay [4] deals with Pseudomonas aeruginosa.
Description: as §1

Setting [5] is: read-out: minimal inhibiting concentration, Klebsiella ssp. isolate 1.
Setting [6] is: read-out: minimal inhibiting concentration, Klebsiella ssp. isolate 2.
[7] abbreviates: read-out: minimal inhibiting concentration, Klebsiella ssp. isolate 3.
[8] abbreviates: read-out: minimal inhibiting concentration, Klebsiella ssp. isolate 4.
Where [9] appears, read: read-out: minimal inhibiting concentration, Klebsiella ssp. isolate 5.
[10] abbreviates: Acinetobacter baumannii isolate 1.
Setting [11] is: Acinetobacter baumannii isolate 2.
[12] abbreviates: Acinetobacter baumannii isolate 3.
[13] abbreviates: Acinetobacter baumannii isolate 4.
Where [14] appears, read: Acinetobacter baumannii isolate 5.
[15] abbreviates: read-out: minimal inhibiting concentration, Acinetobacter baumannii isolate 1.
The mark [16] stands for this setting: read-out: minimal inhibiting concentration, Acinetobacter baumannii isolate 2.
[17] abbreviates: read-out: minimal inhibiting concentration, Acinetobacter baumannii isolate 3.
[18] abbreviates: read-out: minimal inhibiting concentration, Acinetobacter baumannii isolate 4.
Where [19] appears, read: read-out: minimal inhibiting concentration, Acinetobacter baumannii isolate 5.
The mark [20] stands for this setting: Escherichia coli isolate 1, read-out: minimal inhibiting concentration.
[21] abbreviates: Escherichia coli isolate 2, read-out: minimal inhibiting concentration.
Where [22] appears, read: Escherichia coli isolate 3, read-out: minimal inhibiting concentration.
The mark [23] stands for this setting: Escherichia coli isolate 4, read-out: minimal inhibiting concentration.
Setting [24] is: Escherichia coli isolate 5, read-out: minimal inhibiting concentration.
[25] abbreviates: Pseudomonas aeruginosa isolate 1.
Where [26] appears, read: Pseudomonas aeruginosa isolate 2.
Where [27] appears, read: Pseudomonas aeruginosa isolate 3.
[28] abbreviates: Pseudomonas aeruginosa isolate 4.
The mark [29] stands for this setting: Pseudomonas aeruginosa isolate 5.

In brackets after ≈: the same amount, converted by molar mass. Where two headings read alike, the source gives them in different places.
Wherever interpretation of the result is given: key: R, resistant; I, intermediate; S, susceptible; R*: *As a rule, when ESBL is detected, an interpretation of susceptible or intermediate for penicillins, cephalosporins and aztreonam is reported as resistant.

On to `CO/N=C(\C(=O)N[C@@H]1C(=O)N2C(C(=O)O)=C(COC(C)=O)CS[C@H]12)c1csc(N)n1` [Cefo., Cefotaxime], for which the “interpretation of the result” value in assay [1] (Klebsiella ssp. isolate 1) was “R”; in assay [1] (Klebsiella ssp. isolate 2) it was “R”; in assay [1] (Klebsiella ssp. isolate 3), “S”; in assay [1] (Klebsiella ssp. isolate 4) it was “R”; in assay [1] (Klebsiella ssp. isolate 5) it was “R”; in assay [2] (setting [10]), “R”. Also, the “interpretation of the result” value in assay [2] (setting [11]), in assay [2] (setting [12]), in assay [2] (setting [13]) and in assay [2] (setting [14]) was “R” throughout. Moreover, the MIC was over 32 µg/mL in assay [1] (setting [5]); over 32 µg/mL in assay [1] (setting [6]); at most 4 µg/mL in assay [1] (setting [7]); over 32 µg/mL in assay [1] (setting [8]); over 32 µg/mL in assay [1] (setting [9]); over 32 µg/mL in assay [2] (setting [15]). Moreover, the MIC in assay [2] (setting [16]), in assay [2] (setting [17]), in assay [2] (setting [18]) and in assay [2] (setting [19]) was over 32 µg/mL throughout.

On to `C[C@@H](O)[C@H]1C(=O)N2C(C(=O)O)=C(S[C@@H]3CN[C@H](C(=O)Nc4cccc(C(=O)O)c4)C3)[C@H](C)[C@H]12` [Ert., Ertapenem], for which the susceptibility of isolates entry in assay [3] (all E. coli isolates) and in assay [1] (all Klebsiella ssp. isolates) was “susceptible” each time. The “interpretation of the result” value in assay [1] (Klebsiella ssp. isolate 2), in assay [1] (Klebsiella ssp. isolate 3) and in assay [1] (Klebsiella ssp. isolate 4) was “S” in each case. Further, the MIC in assay [1] (setting [6]), in assay [1] (setting [7]) and in assay [1] (setting [8]) was at most 0.5 µg/mL each time.

In the case of `CC(=O)OCC1=C(C(=O)O)N2C(=O)[C@@H](NC(=O)Cc3cccs3)[C@H]2SC1` [Ceph., Cephalotin], the “interpretation of the result” value in assay [2] (setting [10]), in assay [2] (setting [11]), in assay [2] (setting [12]), in assay [2] (setting [13]) and in assay [2] (setting [14]) was “R” in each case. Besides, the minimal inhibiting concentration in assay [2] (setting [10]), in assay [2] (setting [11]), in assay [2] (setting [12]), in assay [2] (setting [13]) and in assay [2] (setting [14]) was over 16 µg/mL each time.

On to `COc1c(N2CCNC(C)C2)c(F)cc2c(=O)c(C(=O)O)cn(C3CC3)c12` (stereo not shown) [Gati., Gatifloxacin], for which the “interpretation of the result” value is recorded as “R” in assay [2] (setting [10]); “R” in assay [2] (setting [11]); “I” in assay [2] (setting [12]); “R” in assay [2] (setting [13]); “R” in assay [2] (setting [14]). In addition, the MIC in assay [2] (setting [15]) was over 4 µg/mL; in assay [2] (setting [16]), over 4 µg/mL; in assay [2] (setting [17]), 4 µg/mL (≈ 10.7 µM); in assay [2] (setting [18]) it was over 4 µg/mL; in assay [2] (setting [19]) it was over 4 µg/mL.

For the molecule `O=C(O)c1cn(C2CC2)c2cc(N3CCNCC3)c(F)cc2c1=O` [Cipro., Ciprofloxacin], the “interpretation of the result” value in assay [3] (Escherichia coli isolate 1), in assay [3] (Escherichia coli isolate 2), in assay [3] (Escherichia coli isolate 3), in assay [3] (Escherichia coli isolate 4) and in assay [3] (Escherichia coli isolate 5) was “R” in each case. Besides, the MIC in assay [3] (setting [20]), in assay [3] (setting [21]), in assay [3] (setting [22]), in assay [3] (setting [23]) and in assay [3] (setting [24]) was over 2 µg/mL throughout.

Consider `C[C@H]1[C@H](NC(=O)/C(=N\OC(C)(C)C(=O)O)c2csc(N)n2)C(=O)N1S(=O)(=O)O` [Az., Aztreonam], for which the “interpretation of the result” value in assay [3] (Escherichia coli isolate 1), in assay [3] (Escherichia coli isolate 2), in assay [3] (Escherichia coli isolate 3), in assay [3] (Escherichia coli isolate 4), in assay [1] (Klebsiella ssp. isolate 1) and in assay [1] (Klebsiella ssp. isolate 2) was “R” each time. Besides, the “interpretation of the result” value in assay [1] (Klebsiella ssp. isolate 3), in assay [1] (Klebsiella ssp. isolate 4), in assay [1] (Klebsiella ssp. isolate 5), in assay [2] (setting [10]), in assay [2] (setting [11]) and in assay [2] (setting [12]) was “R” each time. Moreover, the “interpretation of the result” value in assay [2] (setting [13]) and in assay [2] (setting [14]) was “R” throughout. For the same molecule, the MIC in assay [3] (setting [20]) is over 16 µg/mL; in assay [3] (setting [21]), over 16 µg/mL; in assay [3] (setting [22]) it was over 16 µg/mL; in assay [3] (setting [23]), over 16 µg/mL; in assay [3] (setting [24]) it was 8 µg/mL (≈ 18.4 µM); in assay [1] (Klebsiella ssp. isolate 1, read-out: minimal inhibiting concentration), over 16 µg/mL. Further, the MIC is over 16 µg/mL in assay [1] (Klebsiella ssp. isolate 2, read-out: minimal inhibiting concentration); over 16 µg/mL in assay [1] (Klebsiella ssp. isolate 3, read-out: minimal inhibiting concentration); over 16 µg/mL in assay [1] (Klebsiella ssp. isolate 4, read-out: minimal inhibiting concentration); over 16 µg/mL in assay [1] (Klebsiella ssp. isolate 5, read-out: minimal inhibiting concentration); over 16 µg/mL in assay [2] (Acinetobacter baumannii isolate 1, read-out: minimal inhibiting concentration); over 16 µg/mL in assay [2] (Acinetobacter baumannii isolate 2, read-out: minimal inhibiting concentration). For the same molecule, the MIC is over 16 µg/mL in assay [2] (Acinetobacter baumannii isolate 3, read-out: minimal inhibiting concentration); over 16 µg/mL in assay [2] (Acinetobacter baumannii isolate 4, read-out: minimal inhibiting concentration); over 16 µg/mL in assay [2] (Acinetobacter baumannii isolate 5, read-out: minimal inhibiting concentration).

In the case of Ampicillin-Sulbactam [AmpS.], the “interpretation of the result” value in assay [3] (Escherichia coli isolate 1), in assay [3] (Escherichia coli isolate 2), in assay [3] (Escherichia coli isolate 3), in assay [3] (Escherichia coli isolate 4), in assay [3] (Escherichia coli isolate 5) and in assay [4] (setting [25]) was “R” in each case. Further, the “interpretation of the result” value in assay [4] (setting [26]), in assay [4] (setting [27]), in assay [4] (setting [28]) and in assay [4] (setting [29]) was “R” each time. The minimal inhibiting concentration in assay [3] (Escherichia coli isolate 1), in assay [3] (Escherichia coli isolate 2), in assay [3] (Escherichia coli isolate 3), in assay [3] (Escherichia coli isolate 4), in assay [3] (Escherichia coli isolate 5) and in assay [4] (setting [25]) was 16/8 throughout. Besides, the minimal inhibiting concentration in assay [4] (setting [26]), in assay [4] (setting [27]), in assay [4] (setting [28]) and in assay [4] (setting [29]) was 16/8 each time.

As to `CCN1CCN(C(=O)N[C@@H](C(=O)N[C@@H]2C(=O)N3[C@@H]2SC(C)(C)[C@@H]3C(=O)O)c2ccccc2)C(=O)C1=O` [Pip., Piperacillin], the “interpretation of the result” value in assay [2] (setting [10]), in assay [2] (setting [11]), in assay [2] (setting [12]), in assay [2] (setting [13]) and in assay [2] (setting [14]) was “R” each time. The MIC in assay [2] (setting [15]), in assay [2] (setting [16]), in assay [2] (setting [17]), in assay [2] (setting [18]) and in assay [2] (setting [19]) was over 64 µg/mL each time.

As for `CO/N=C(\C(=O)N[C@@H]1C(=O)N2C(C(=O)[O-])=C(C[N+]3(C)CCCC3)CS[C@H]12)c1csc(N)n1` [Cefe., Cefepime], the “interpretation of the result” value in assay [3] (Escherichia coli isolate 1), in assay [3] (Escherichia coli isolate 2), in assay [3] (Escherichia coli isolate 3), in assay [3] (Escherichia coli isolate 4), in assay [1] (Klebsiella ssp. isolate 1) and in assay [1] (Klebsiella ssp. isolate 2) was “R” in each case. In assay [1] (Klebsiella ssp. isolate 4), the “interpretation of the result” value is “R”. Further, the MIC in assay [3] (read-out: minimal inhibiting concentration, Escherichia coli isolate 1) is over 16 µg/mL; in assay [3] (read-out: minimal inhibiting concentration, Escherichia coli isolate 2), over 16 µg/mL; in assay [3] (read-out: minimal inhibiting concentration, Escherichia coli isolate 3), over 16 µg/mL; in assay [3] (read-out: minimal inhibiting concentration, Escherichia coli isolate 4) it was over 16 µg/mL; in assay [3] (read-out: minimal inhibiting concentration, Escherichia coli isolate 5), 8 µg/mL (≈ 16.6 µM); in assay [1] (setting [5]), over 16 µg/mL. In addition, the MIC in assay [1] (setting [6]) is over 16 µg/mL; in assay [1] (setting [7]) it was 2 µg/mL (≈ 4.16 µM); in assay [1] (setting [8]) it was over 16 µg/mL; in assay [1] (setting [9]) it was 2 µg/mL (≈ 4.16 µM).

Amoxillin-Calvulanate [AmoxC.]: the “interpretation of the result” value in assay [1] (Klebsiella ssp. isolate 1), in assay [1] (Klebsiella ssp. isolate 2), in assay [1] (Klebsiella ssp. isolate 3), in assay [1] (Klebsiella ssp. isolate 4), in assay [1] (Klebsiella ssp. isolate 5) and in assay [2] (setting [10]) was “R” in each case. The “interpretation of the result” value in assay [2] (setting [11]), in assay [2] (setting [12]), in assay [2] (setting [13]) and in assay [2] (setting [14]) was “R” each time. The minimal inhibiting concentration in assay [1] (Klebsiella ssp. isolate 1) is given as 16/8; in assay [1] (Klebsiella ssp. isolate 2) it was 16/8; in assay [1] (Klebsiella ssp. isolate 3), 8/4; in assay [1] (Klebsiella ssp. isolate 4), 16/8; in assay [1] (Klebsiella ssp. isolate 5), 16/8; in assay [2] (setting [10]), 16/8. Besides, the minimal inhibiting concentration in assay [2] (setting [11]), in assay [2] (setting [12]), in assay [2] (setting [13]) and in assay [2] (setting [14]) was 16/8 throughout.
